Experimental findings from patent US9232804B2, “Compositions and methods for sterilizing bioscaffolds” (KNU University-Industry Cooperation Foundation, priority 2012, dated 2016) are described below.

For one data set, the system named is porcine liver scaffolds. Description: Sterilization effect on scaffolds according to culture time (DMEM + 10% FBS, Columbia blood agar). The procedure:
First, the porcine liver scaffolds prepared in Example 1 were divided into two groups: an experimental group in which the scaffolds were immersed in the slightly acidic electrolyzed water prepared in Example 2 to be sterilized for […], 60 minutes, 90 minutes, and 120 minutes, respectively; and a control group in which the scaffolds were treated with PBS, peracetic acid (PAA) solution (Sigma-Aldrich, St Louis, Mo., USA), and 70% ethanol solution (Daejung Chemicals and Metals, Seoul, Korea), instead of the slightly acidic electrolyzed water. The slightly acidic electrolyzed water was changed every 15 minutes to be the best fit for sterilization of the porcine liver scaffolds, and the sterilized porcine liver scaffolds were washed with PBS once.
The porcine liver scaffolds of the experimental group and the control group treated by the method described in the above section 3-1 were incubated in Dulbecco's Modified Eagle's Medium (DMEM; Invitrogen, Carlsbad, Calif., USA) supplemented with 10% fetal bovine serum (FBS, Hyclone, Logan, Utah, USA) at 37° C. and on Columbia blood agar medium (Fluka Chemie GmbH) for 96 hours and then checked periodically for signs of infection. In the event of infection, the discoloration and turbidity of medium increases, and the growth of cell colonies is observed on blood agar medium.
In Table 2, (−) represents that no symptoms of infection were observed; (+) represents that symptoms of infection were observed; (x) represents that symptoms of infection were observed before observation time; native liver, decellularized liver, and PBS-treated liver were used as positive controls; and medium without scaffolds was used as the negative control.

The test system of data set [1] is collagen in porcine liver scaffolds. The data set can be described thus: Collagen content, Sircol collagen dye-binding assay. The note with it: relative to native liver. The procedure: To evaluate the effects of the slightly acidic electrolyzed water of the present invention on the content of collagen, the total collagen levels in native liver, decellularized scaffolds (untreated), scaffolds treated with PBS, PAA, or ethanol, and scaffolds treated with the slightly acidic electrolyzed water of the present invention were determined using a Sircol collagen dye-binding assay kit (Biocolor Ltd.) according to the manufacturer's instructions.
In more detail, lyophilized samples of native porcine liver slices, scaffolds decellularized by the method of Example 1, porcine liver scaffolds treated with PAA, PBS, ethanol, and slightly acidic electrolyzed water, respectively, were prepared. Then, total acid pepsin-soluble collagen was obtained after incubation in 0.5 M acetic acid containing 0.1 mg/ml pepsin. A 100 μL aliquot of acid neutralizing reagent was added to the acid-pepsin extract. Then, the extract was centrifuged after an overnight incubation at 4° C. Then, 1 mL Sircol dye reagent was added to the pellet and incubated at 25° C. for 30 minutes. After centrifugation, the pellet was washed with acid-salt wash reagent and suspended in 1 mL of alkaline reagent. Then, the absorbance was measured at 540 nm.

The test system of the next data set is porcine skin fibroblasts. Description: Cytotoxicity test (MTT) with conditioned medium from sterilized scaffolds. It is filed as cell-based. The note with it: conditioned medium from treated scaffolds. The procedure:
Conditioned cell culture media were prepared from scaffolds treated with the slightly acidic electrolyzed water of the present invention. In brief, serum-free DMEM cell culture medium was incubated overnight with each SAEW-treated scaffold at a concentration of 0.2 g/ml media at 37° C. in a shaker at 70 rpm/min. Cell culture media without scaffolds were prepared by the same method as above to provide unconditioned controls. After incubation, the scaffolds were removed and the medium was filtered through a 0.4 μm filter to prepare culture medium containing soluble factors released from extracellular matrix.
The medium in which fibroblasts were incubated was aspirated, followed by the addition of conditioned or unconditioned culture medium containing 10% FBS and 1% penicillin-streptomycin (Gibco, Grand Island, N.Y., USA) to the well with attached fibroblasts, and the plate was incubated 37° C. in 5% CO2 atmosphere for 24 hours and 48 hours (the culture medium was changed every 24 hours).

Data set [2] deals with porcine fibroblasts. Description: Ki-67 immunostaining of fibroblasts in conditioned medium. The note with it: conditioned medium from treated scaffolds. The data set is classed as cell-based. The procedure:
Conditioned and control media were prepared by the method described in Example 6-1, and about 5000 porcine fibroblasts were cultured on gelatin-coated 4-well plates for 24 hours. Then, the medium was switched to conditioned or control medium. The medium was changed every 24 hours. The proliferation potential of the soluble factors eluted from the scaffolds was checked after incubation for 24 hour and 48 hours. Cells were immunostained using anti-Ki-67 antibody (Abcam, Cambridge, UK). Texas Red goat anti-rabbit IgG (Invitrogen) was used as a secondary antibody. Nuclei were counterstained using a mounting medium containing DAPI. The percentage of Ki-67 positive cells was calculated as the ratio of average positive Ki-67 cells relative to 250 DAPI-stained cells.

The test system of data set [3] is porcine fibroblasts. The data set can be described thus: MTT cell attachment assay on sterilized scaffolds. To be noted: incubated for 3 hours to attach, viable for 16 hours.
Experimental: Then, a 100 μL aliquot of DMEM in which porcine fibroblasts were suspended was added to each scaffold disc such that a total of about 50,000 fibroblasts were seeded on the plates. Then, the plate was incubated at 37° C. in 5% CO2 atmosphere for 3 hours to allow the fibroblasts to attach to scaffold substrates. The scaffold substrates were carefully transferred to another well such that the cells attached to the scaffold would remain undisturbed. Then, the plate was incubated at 37° C. in 5% CO2 atmosphere for 12 hours. Then, 10 μL of MTT solution (3-[4,5-dimethylthiazol-2yl]-2,5-diphenyltetrazolium bromide; 5 mg/ml, Sigma Aldrich) dissolved in PBS was added to each well and incubated at 37° C. in 5% CO2 atmosphere for 5 hours. Then, the media were removed and 200 μL of dimethyl sulfoxide (DMSO) was added to each well to dissolve the formazan by pipetting. After incubation for 10 minutes, 100 μL of solutions from the respective substrate wells were pipetted into another 96-well plate. Finally, the absorbance of the samples was determined using a spectrophotometer with a test wavelength of 570 nm and a reference wavelength of 630 nm.
The nature of data set [4]: Glycosaminoglycan content, dimethyl methylene blue dye-binding assay (Blyscan kit). Further details: species or system porcine. To be noted: for content of glycosaminoglycans, % of that in untreated and decellularized scaffolds: relative to untreated and decellularized scaffolds; for content of glycosaminoglycans, % of that in untreated scaffolds: relative to untreated scaffolds. The procedure:
To evaluate the effects of the slightly acidic electrolyzed water of the present invention on the content of glycosaminoglycans, the content of glycosaminoglycans in decellularized liver (untreated scaffolds), scaffolds treated with PBS, and scaffolds treated with the slightly acidic electrolyzed water of the present invention were determined using a dimethyl methylene blue dye-binding assay kit (Blyscan kit; Biocolor Ltd) according to the manufacturer's instructions. First, 5 mg of lyophilized sample was homogenized and solubilized. A 100 μL aliquot from each sample lysate was added to 1 mL of dimethyl methylene blue solution and agitated on a shaker at 25° C. for 30 minutes. The resulting solutions were then centrifuged at 10,000×g for 10 minutes to collect the GAG dye complex, and the supernatants were discarded. The remaining pellet was suspended in 1 mL of the provided dissociation reagent, and the absorbance was measured at 655 nm. Chondroitin sulfate provided in the kit was used as a standard of glycosaminoglycans.

Data set [5] relates to DNA in porcine liver scaffolds. Description: DNA content of treated scaffolds (removal of immunogenic antigens). The note with it: relative to untreated scaffolds. The procedure: First, lyophilized samples of native porcine liver slices, scaffolds decellularized by the method of Example 1, porcine liver scaffolds treated with 0.1% peracetic acid solution (PAA; Sigma-Aldrich, St Louis, Mo., USA), PBS, 70% ethanol (Daejung Chemicals and Metals, Seoul, Korea), and slightly acidic electrolyzed water were prepared. Then, DNA was extracted from the lyophilized samples using the DNeasy Blood and Tissue Kit (Qiagen, Hilden, Germany).

With `CCO` [Ethanol, ethanol], the symptoms of infection entry is reported as “−” in the data set with porcine liver scaffolds (Columbia blood agar, 6 hour); “−” with porcine liver scaffolds (Columbia blood agar, 24 hour); “−” in the data set on porcine liver scaffolds (Columbia blood agar, 36 hour); “−” with porcine liver scaffolds (Columbia blood agar, 48 hour); “+” in the data set with porcine liver scaffolds (Columbia blood agar, 60 hour); “−” in the data set on porcine liver scaffolds (DMEM + 10% FBS, 6 hour). Moreover, the symptoms of infection entry in the data set on porcine liver scaffolds (DMEM + 10% FBS, 24 hour) is “−”; with porcine liver scaffolds (DMEM + 10% FBS, 36 hour), “−”; in the data set with porcine liver scaffolds (DMEM + 10% FBS, 48 hour), “−”; in the data set with porcine liver scaffolds (DMEM + 10% FBS, 60 hour) it was “−”; with porcine liver scaffolds (DMEM + 10% FBS, 72 hour), “+”. The “content of collagen, % of that in native liver” value in data set [1] came to 87.54±4.07%. In addition, the results for the “proliferation rate of fibroblasts compared to unconditioned medium” value in the data set on porcine skin fibroblasts (incubation for 24 hours) and in the data set with porcine skin fibroblasts (incubation for 48 hours) were 109.22±5.58% and 113.95±6.67%, respectively. Further, the “percentage of Ki-67 positive cells compared to the control group” value in the data set with porcine fibroblasts [2] is recorded as “no significant difference”. The “seeded fibroblasts attached to scaffolds and remaining viable” value with porcine fibroblasts [3] was found to be 64.86±3.48%. For the same compound, the “content of glycosaminoglycans, % of that in untreated and decellularized scaffolds” value in data set [4] came to 64.16±1.92%. The “content of glycosaminoglycans, % of that in untreated scaffolds” value in data set [4] stood at 49.1±1.47%.

Consider `CC(=O)OO` [PAA, peracetic acid], for which the symptoms of infection entry is on record as “−” in the data set with porcine liver scaffolds (Columbia blood agar, 6 hour); “−” in the data set on porcine liver scaffolds (Columbia blood agar, 24 hour); “−” in the data set on porcine liver scaffolds (Columbia blood agar, 36 hour); “−” in the data set with porcine liver scaffolds (Columbia blood agar, 48 hour); “−” in the data set with porcine liver scaffolds (Columbia blood agar, 60 hour); “−” with porcine liver scaffolds (Columbia blood agar, 72 hour). The symptoms of infection entry in the data set with porcine liver scaffolds (Columbia blood agar, 96 hour) is given as “−”; in the data set with porcine liver scaffolds (DMEM + 10% FBS, 6 hour), “−”; in the data set with porcine liver scaffolds (DMEM + 10% FBS, 24 hour) it was “−”; with porcine liver scaffolds (DMEM + 10% FBS, 36 hour), “−”; in the data set with porcine liver scaffolds (DMEM + 10% FBS, 48 hour), “−”; in the data set with porcine liver scaffolds (DMEM + 10% FBS, 60 hour), “−”. For the same compound, the symptoms of infection result is “−” in the data set on porcine liver scaffolds (DMEM + 10% FBS, 72 hour) and “−” in the data set with porcine liver scaffolds (DMEM + 10% FBS, 96 hour). Besides, the results for the “proliferation rate of fibroblasts compared to unconditioned medium” value in the data set with porcine skin fibroblasts (incubation for 24 hours) and in the data set with porcine skin fibroblasts (incubation for 48 hours) were 119.18±5.6% and 127.43±6.68%, respectively. Moreover, the “efficiency for removing the DNA content” value in data set [5] is 93.13±2.82%. In addition, in the data set on porcine fibroblasts [2], the “percentage of Ki-67 positive cells compared to the control group” value is “no significant difference”. Besides, in the data set on porcine fibroblasts [3], the “seeded fibroblasts attached to scaffolds and remaining viable” value turned out to be 71.50±1.95%. Besides, the “content of glycosaminoglycans, % of that in untreated and decellularized scaffolds” value in data set [4] came to 56±1.04%. Further, the “content of glycosaminoglycans, % of that in untreated scaffolds” value in data set [4] is on record as 43±0.80%.
